Columns and labels:
[1] = molecular target: T1, CD137 (Homo sapiens, UniProt Q07011); assay: CD137 reporter assay, co-culture with Nectin-4 tumour cells; format: cell-based; design: host or cells: Jurkat reporter cells; conditions: for Fold Induction over Background: tumour target Nectin4, co-culture with H1376, 6 h;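 on all read-outs here: jurkat reporter cells co-cultured with tumour cells and test article for 6 h, luminescence signal relative to Jurkat plus tumour cells lacking test article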
Description: Culture medium referred to as R1 media is prepared by adding 1% FBS to RPMI-1640 (component of Promega kit CS196005). Serial dilutions of test articles in R1 are prepared in a sterile 96 well-plate. Use 25 μl per well of test articles or R1 (as a background control) to designated wells in white cell culture plate. Tumour cells* are harvested and resuspended at a concentration of 400,000 cells/mL in R1 media. Twenty five (25) μL/well tumour cells are used in white cell culture plate. Jurkat cells (Promega kit CS196005, 0.5 mL) are thawed in the water bath and then added to 5 ml pre-warmed R1 medium. Twenty five (25) μL/well Jurkat cells are used in white cell culture plate. Incubate the cells and test articles for 6h at 37° C., 5% CO2. At the end of 6 h, add 75 μl/well Bio-Glo™ (Promega) and incubate for 10 min before reading luminescence in a plate reader (Clariostar, BMG). The fold change relative to cells (Jurkat cells+Cell line used in co-culture) is calculated and plotted in GraphPad Prism as log(agonist) vs response to determine EC50 (nM) and Fold Induction over background (Max)

[2] = test system: human PBMC co-cultured with 4T1-D02 (Nectin4+); assay: Human PBMC-4T1 co-culture (cytokine release) assay; format: cell-based; conditions: anti-CD3 stimulated PBMC, 48 hours
Method in brief: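 Healthy-donor human PBMCs co-cultured 5:1 with murine Nectin-4-overexpressing 4T1-D02 cells, stimulated with 125 ng/ml soluble anti-CD3 (OKT3) plus test compounds. IL-2 and IFNγ in 48 h supernatants measured by HTRF and interpolated from standard curves; three donors, each in duplicate.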

[3] = molecular target: T2, human Nectin-4 protein (Homo sapiens, UniProt Q96NY8); assay: Nectin-4 Biacore (SPR) binding assay; conditions: biotinylated human Nectin-4, 25° C.
T2 construct: Human Nectin-4 (residues Gly32-Ser349); host or cells: Sf21 insect cells (baculovirus, pFastbac-1)
T2 sequence (Q96NY8 32-349): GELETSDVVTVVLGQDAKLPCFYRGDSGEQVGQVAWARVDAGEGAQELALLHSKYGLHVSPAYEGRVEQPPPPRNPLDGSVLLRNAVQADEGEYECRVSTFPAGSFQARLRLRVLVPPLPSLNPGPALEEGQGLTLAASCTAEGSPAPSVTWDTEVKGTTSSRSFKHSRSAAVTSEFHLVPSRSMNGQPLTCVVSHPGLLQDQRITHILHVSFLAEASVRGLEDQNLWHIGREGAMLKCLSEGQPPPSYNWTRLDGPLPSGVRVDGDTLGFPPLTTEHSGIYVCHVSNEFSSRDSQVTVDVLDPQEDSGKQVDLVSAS
Description: Biacore experiments were performed to determine ka (M^−1s^−1), kd (s^−1), KD (nM) values of heterotandem peptides binding to human Nectin-4 protein (obtained from Charles River). Human Nectin-4 (residues Gly32-Ser349; NCBI RefSeq: NP_112178.2) with a gp67 signal sequence and C-terminal FLAG tag was cloned into pFastbac-1 and baculovirus made using standard Bac-to-Bac™ protocols (Life Technologies). Sf21 cells at 1×10^6 ml^−1 in Excell-420 medium (Sigma) at 27° C. were infected at an MOI of 2 with a P1 virus stock and the supernatant harvested at 72 hours. The supernatant was batch bound for 1 hour at 4° C. with Anti-FLAG M2 affinity agarose resin (Sigma) washed in PBS and the resin subsequently transferred to a column and washed extensively with PBS. The protein was eluted with 100 μg/ml FLAG peptide. The eluted protein was concentrated to 2 ml and loaded onto an S-200 Superdex column (GE Healthcare) in PBS at 1 ml/min. 2 ml fractions were collected and the fractions containing Nectin-4 protein were concentrated to 16 mg/ml.
The protein was extensively desalted to remove uncoupled biotin using spin columns into PBS.
For analysis of peptide binding, a Biacore 3000 instrument was used with a CM5 chip (GE Healthcare). Streptavidin was immobilized on the chip using standard amine-coupling chemistry at 25° C. with HBS-N (10 mM HEPES, 0.15 M NaCl, pH 7.4) as the running buffer. Briefly, the carboxymethyl dextran surface was activated with a 7 minute injection of a 1:1 ratio of 0.4 M 1-ethyl-3-(3-dimethylaminopropyl) carbodiimide hydrochloride (EDC)/0.1 M N-hydroxy succinimide (NHS) at a flow rate of 10 μl/min. For capture of streptavidin, the protein was diluted to 0.2 mg/ml in 10 mM sodium acetate (pH 4.5) and captured by injecting 120 μl of streptavidin onto the activated chip surface. Residual activated groups were blocked with a 7 minute injection of 1 M ethanolamine (pH 8.5) and biotinylated Nectin-4 captured to a level of 1,200-1,800 RU. Buffer was changed to PBS/0.05% Tween 20 and a dilution series of the peptides was prepared in this buffer with a final DMSO concentration of 0.5%. The top peptide concentration was 100 nM with 6 further 2-fold dilutions. The SPR analysis was run at 25° C. at a flow rate of 50 μl/min with 60 seconds association and dissociation between 400 and 1,200 seconds depending upon the individual peptide. Data were corrected for DMSO excluded volume effects. All data were double-referenced for blank injections and reference surface using standard processing procedures and data processing and kinetic fitting were performed using Scrubber software, version 2.0c (BioLogic Software). Data were fitted using simple 1:1 binding model allowing for mass transport effects where appropriate.

[4] = molecular target: T1, CD137; assay: CD137 Biacore (SPR) binding assay; design: purchased R&D systems; conditions: biotinylated human CD137, 25° C.
Method in brief: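 Biotinylated human CD137 captured (270-1500 RU) on streptavidin-coupled dextran chip; peptides up to 500 nM in PBS/0.05% Tween 20, 0.5% DMSO, at 25°C, 60 s association, 900 s dissociation. Double-referenced data fitted to 1:1 binding model, with mass transport where appropriate.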

T1 sequence (Q07011 24-255): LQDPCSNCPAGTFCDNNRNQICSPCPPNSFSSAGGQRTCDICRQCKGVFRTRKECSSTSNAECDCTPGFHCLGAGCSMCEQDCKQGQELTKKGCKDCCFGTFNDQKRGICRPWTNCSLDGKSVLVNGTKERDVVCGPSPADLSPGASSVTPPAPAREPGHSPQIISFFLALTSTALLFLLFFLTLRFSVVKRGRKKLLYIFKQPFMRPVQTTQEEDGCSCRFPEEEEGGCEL

SMILES | fold induction at 0.1 µM ([1]; read-out: Fold Induction over Background at 100 nM) | max IFN-y [2] | Kd [3] [nM] | EC50 [1] [nM] | Fold Induction over Background [1] [fold] | Kd [4] [nM]
CCCC[C@@H]1NC(=O)[C@H](Cc2ccc(O)cc2)NC(=O)[C@@H]2CCCN2C(=O)[C@H](CC(=O)O)NC(=O)[C@H](C)NC(=O)[C@H](Cc2ccccc2)NC(=O)[C@@H]2CSCCC(=O)N3CN(CN(C3)C(=O)CCSC[C@@H](C(=O)N[C@@H](CNC(=O)CCOCCOCCOCCOCCOCCOCCOCCOCCOCCOCCOCCOCCn3cc(CCC(=O)NCCC(=O)N(C)CC(=O)N(C)CC(=O)N(C)CC(=O)N(C)CC(=O)N(C)CC(=O)N(C)CC(=O)N(C)CC(=O)N(C)CC(=O)N(C)CC(=O)N(C)CC(=O)N[C@H]4CSCCC(=O)N5CN6CN(C5)C(=O)CCSC[C@H](NC(=O)[C@@H](CC(=O)O)NC(=O)[C@H](Cc5cccc7ccccc57)NC(=O)[C@@H]5CCCN5C4=O)C(=O)N[C@@H](CCSC)C(=O)N[C@@H](CCCCNC(=N)N)C(=O)N[C@@H](CC(=O)O)C(=O)N[C@H](Cc4c[nH]c5ccccc45)C(=O)N[C@@H](CO)C(=O)N[C@@H]([C@@H](C)O)C(=O)N4CCC[C@H]4C(=O)N4C[C@H](O)C[C@H]4C(=O)N[C@H](Cc4c[nH]c5ccccc45)C(=O)N[C@H](C(N)=O)CSCCC6=O)nn3)C(N)=O)NC1=O)C(=O)CCSC[C@H](NC(=O)[C@H](C)NC(C)=O)C(=O)N[C@@H]([C@@H](C)CC)C(=O)N[C@@H](CCC(=O)O)C(=O)N[C@@H](CCC(=O)O)C(=O)NCC(=O)N[C@@H](CCC(N)=O)C(=O)N[C@@H](Cc1ccc(O)cc1)C(=O)N2 [BCY9350] | < 2 | No Activity up to 1 μM | > 200 | – | – | –
CCCC[C@@H]1NC(=O)[C@H](Cc2ccc(O)cc2)NC(=O)[C@@H]2CCCN2C(=O)[C@H](CC(=O)O)NC(=O)[C@H](C)NC(=O)[C@H](Cc2ccccc2)NC(=O)[C@@H]2CSCCC(=O)N3CN(CN(C3)C(=O)CCSC[C@@H](C(=O)N[C@@H](CNC(=O)CCc3cn(CCCNC(=O)CN(C)C(=O)CN(C)C(=O)CN(C)C(=O)CN(C)C(=O)CN(C)C(=O)COCCOCCOCCOCCOCCNC(=O)N[C@H]4CSCCC(=O)N5CN6CN(C5)C(=O)CCSC[C@H](NC(=O)[C@@H](CC(=O)O)NC(=O)[C@H](Cc5cccc7ccccc57)NC(=O)[C@@H]5CCCN5C4=O)C(=O)N[C@@H](CCSC)C(=O)N[C@@H](CCCCNC(=N)N)C(=O)N[C@@H](CC(=O)O)C(=O)N[C@@H](Cc4c[nH]c5ccccc45)C(=O)N[C@@H](CO)C(=O)N[C@@H]([C@@H](C)O)C(=O)N4CCC[C@H]4C(=O)N4C[C@H](O)C[C@H]4C(=O)N[C@@H](Cc4c[nH]c5ccccc45)C(=O)N[C@H](C(N)=O)CSCCC6=O)nn3)C(N)=O)NC1=O)C(=O)CCSC[C@H](NC(=O)[C@H](C)NC(C)=O)C(=O)N[C@@H]([C@@H](C)CC)C(=O)N[C@@H](CCC(=O)O)C(=O)N[C@@H](CCC(=O)O)C(=O)NCC(=O)N[C@@H](CCC(N)=O)C(=O)N[C@@H](Cc1ccc(O)cc1)C(=O)N2 [BCY9410] | – | – | 1.49 | 1.3 | 24 | 65.8
CCCC[C@@H]1NC(=O)[C@H](Cc2ccc(O)cc2)NC(=O)[C@@H]2CCCN2C(=O)[C@H](CC(=O)O)NC(=O)[C@H](C)NC(=O)[C@H](Cc2ccccc2)NC(=O)[C@@H]2CSCCC(=O)N3CN(CN(C3)C(=O)CCSC[C@@H](C(=O)N[C@@H](CNC(=O)CCc3cn(CCOCCOCCOCCOCCOCCNC(=O)N[C@H]4CSCCC(=O)N5CN6CN(C5)C(=O)CCSC[C@H](NC(=O)[C@@H](CC(=O)O)NC(=O)[C@H](Cc5cccc7ccccc57)NC(=O)[C@@H]5CCCN5C4=O)C(=O)N[C@@H](CCSC)C(=O)N[C@@H](CCCCNC(=N)N)C(=O)N[C@@H](CC(=O)O)C(=O)N[C@@H](Cc4c[nH]c5ccccc45)C(=O)N[C@@H](CO)C(=O)N[C@@H]([C@@H](C)O)C(=O)N4CCC[C@H]4C(=O)N4C[C@H](O)C[C@H]4C(=O)N[C@@H](Cc4c[nH]c5ccccc45)C(=O)N[C@H](C(N)=O)CSCCC6=O)nn3)C(N)=O)NC1=O)C(=O)CCSC[C@H](NC(=O)[C@H](C)NC(C)=O)C(=O)N[C@@H]([C@@H](C)CC)C(=O)N[C@@H](CCC(=O)O)C(=O)N[C@@H](CCC(=O)O)C(=O)NCC(=O)N[C@@H](CCC(N)=O)C(=O)N[C@@H](Cc1ccc(O)cc1)C(=O)N2 [BCY9411] | – | – | 1.48 | 14 | 41 | 71.1

Reference: patent US11453703B2, “Heterotandem bicyclic peptide complexes” (BicycleTX Limited, priority 2018, dated 2022)
